Experimental data from ChEMBL document CHEMBL5634187, “Identification of Selective Imidazopyridine CSF1R Inhibitors” (ACS Med Chem Lett, 2024).
pIC50: −log10 of the molar value. Converted amounts (≈) assume the structure as drawn.

Legend:
physchem [1] = details: octanol/water
Description: Lipophilicity, logD of the compound

in vitro [2] = details: rat, liver microsomes
Description: Intrinsic clearance in rat liver microsomes

[3] = biological target: CYP450 (isoform not stated) (Homo sapiens, UniProt P04798+P05177+P05181+P08684+P10632+P10635+P11509+P11712+P13584+P20813+P20815+P20853+P24462+P24903+P33260+P33261+P51589+P78329+P98187+Q02928+Q08477+Q16678+Q16696+Q5TCH4+Q6VVX0+Q7Z449+Q8TAV3+Q96SQ9+Q9HB55); experiment: in vitro
in vitro [4] = details: human, Caco-2
Description: Permeability in human Caco-2 cells

in vitro [5] = details: human, liver microsomes
Description: Intrinsic clearance in human liver microsomes

physchem [6] = details: buffer, pH 7.4
Description: Solubility of compound at pH 7.4

in vivo [7] = details: Sprague-Dawley, rat, iv, 1 mg/kg
Description: Half-life in Sprague-Dawley rat at 1 mg/kg, iv

Cytochrome P450 3A4 = Cytochrome P450 3A4 (Homo sapiens, UniProt P08684); experiment: Inhibition of CYP450 3A4 (unknown origin) using midazolam as substrate; assay type: ADME
in vivo [8] = details: Sprague-Dawley, rat, iv, 1 mg/kg; remark: listed apart in the source
in vivo [9] = details: Sprague-Dawley, rat, iv, 1 mg/kg; remark: listed apart in the source
in vivo [10] = details: Sprague-Dawley, rat, po, 3 mg/kg
in vivo [11] = details: Sprague-Dawley, rat, po, 3 mg/kg; remark: listed apart in the source
in vivo [12] = details: Sprague-Dawley, rat, iv, 1 mg/kg; remark: listed apart in the source
Description: Clearance in Sprague-Dawley rat at 1 mg/kg, iv

in vivo [13] = details: Sprague-Dawley, rat, po, 3 mg/kg; remark: listed apart in the source
in vivo [14] = details: Sprague-Dawley, rat, po, 3 mg/kg; remark: listed apart in the source
Description: Half-life in Sprague-Dawley rat at 3 mg/kg, po

[15] = biological target: Mast/stem cell growth factor receptor Kit (Homo sapiens, UniProt P10721)
Mast/stem cell growth factor receptor Kit, sequence (P10721 whole entry): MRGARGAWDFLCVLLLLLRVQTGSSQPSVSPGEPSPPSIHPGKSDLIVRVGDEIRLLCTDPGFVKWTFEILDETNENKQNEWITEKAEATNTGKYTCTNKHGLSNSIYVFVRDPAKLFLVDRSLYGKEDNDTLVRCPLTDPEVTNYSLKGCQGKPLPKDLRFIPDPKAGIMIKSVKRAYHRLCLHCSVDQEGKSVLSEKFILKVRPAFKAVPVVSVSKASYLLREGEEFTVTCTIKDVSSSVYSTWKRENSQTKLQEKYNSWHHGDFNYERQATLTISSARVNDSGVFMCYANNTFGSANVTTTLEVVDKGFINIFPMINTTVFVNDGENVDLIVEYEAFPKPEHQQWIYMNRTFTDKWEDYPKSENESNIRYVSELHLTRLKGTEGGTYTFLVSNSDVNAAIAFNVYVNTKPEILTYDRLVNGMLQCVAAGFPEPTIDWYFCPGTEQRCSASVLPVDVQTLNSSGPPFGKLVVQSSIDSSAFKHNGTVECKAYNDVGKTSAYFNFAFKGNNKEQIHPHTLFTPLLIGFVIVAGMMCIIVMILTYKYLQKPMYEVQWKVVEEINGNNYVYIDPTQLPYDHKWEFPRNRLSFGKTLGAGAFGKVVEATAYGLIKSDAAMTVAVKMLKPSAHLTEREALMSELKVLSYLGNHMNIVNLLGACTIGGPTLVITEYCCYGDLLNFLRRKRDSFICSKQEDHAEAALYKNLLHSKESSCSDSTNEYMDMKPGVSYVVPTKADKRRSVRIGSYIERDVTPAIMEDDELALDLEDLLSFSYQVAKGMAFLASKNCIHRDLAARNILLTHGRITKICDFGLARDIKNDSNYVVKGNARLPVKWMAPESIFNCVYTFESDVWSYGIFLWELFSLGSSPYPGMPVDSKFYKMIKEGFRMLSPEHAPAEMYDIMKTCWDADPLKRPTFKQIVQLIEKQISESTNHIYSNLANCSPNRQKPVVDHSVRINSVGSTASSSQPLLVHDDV
Description: Inhibition of c-Kit (unknown origin)

Cytochrome P450 3A4, sequence (P08684 whole entry): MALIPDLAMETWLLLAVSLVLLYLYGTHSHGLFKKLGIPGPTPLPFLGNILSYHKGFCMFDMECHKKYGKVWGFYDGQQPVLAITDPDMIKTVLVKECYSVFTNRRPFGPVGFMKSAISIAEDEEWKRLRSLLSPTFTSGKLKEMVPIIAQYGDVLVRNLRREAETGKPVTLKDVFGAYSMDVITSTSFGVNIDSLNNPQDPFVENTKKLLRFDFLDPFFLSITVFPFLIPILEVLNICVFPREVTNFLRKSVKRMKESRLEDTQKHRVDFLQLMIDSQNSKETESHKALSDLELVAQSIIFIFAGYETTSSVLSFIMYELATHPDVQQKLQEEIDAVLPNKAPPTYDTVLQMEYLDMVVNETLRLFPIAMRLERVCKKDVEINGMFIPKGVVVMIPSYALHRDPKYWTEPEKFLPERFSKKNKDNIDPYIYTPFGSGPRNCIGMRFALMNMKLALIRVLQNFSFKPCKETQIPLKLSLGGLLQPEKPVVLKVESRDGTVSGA

Row | Structure (SMILES) | logD (physchem [1]) | microsomal CLint (in vitro [2]) | pIC50 [3] | Papp (in vitro [4]) | microsomal CLint (in vitro [5]) | solubility (physchem [6]) | other results
1 | COc1ccc(COc2ccc(Cn3cnc4cc(N5CCN(C)CC5)cnc43)cc2OC)cn1 | 2.3 | 130 µL/min/mg | < 5.00 | 29 ×10⁻⁶ cm/s | 33 µL/min/mg | > 450 µg/mL | 
2 | COc1ccc(COc2ccc(Cn3cnc4cc(-n5cc(C(C)(C)N)nn5)cnc43)cc2OC)cn1 | 1.6 | < 7.2 µL/min/mg | < 5.00 | 2 ×10⁻⁶ cm/s | 21 µL/min/mg | 13 µg/mL (≈ 26 µM) | 
3 | COc1ccc(COc2ccc(Cn3cnc4cc(C(=O)N5CC6(COC6)C5)cnc43)cc2OC)cn1 |  |  | < 5.00 |  |  |  | 
4 | COc1ccc(COc2ccc(Cn3cnc4cc(C(=O)N(C)C)cnc43)cc2OC)cn1 |  |  | < 5.00 |  |  |  | 
5 | COc1ccc(COc2ccc(Cn3cnc4cc(OC5CCNCC5)cnc43)cc2OC)cn1 |  |  | < 5.00 |  |  |  | 
6 | COc1ccc(COc2ccc(Cn3cnc4cc(C#CC5CCNC5)cnc43)cc2OC)cn1 (centres undefined) | 1.5 | 19 µL/min/mg |  | 5.1 ×10⁻⁶ cm/s | 16 µL/min/mg | 57 µg/mL (≈ 121 µM) | half-life (in vivo [7]): 2 h; pIC50 (Cytochrome P450 3A4): 5.18; Vd (in vivo [8]): 4.89 L/kg; AUC(0-inf) (in vivo [9]): 542 ng·h/mL; bioavailability (in vivo [10]): 36%; AUC(0-inf) (in vivo [11]): 625 ng·h/mL; clearance (in vivo [12]): 31 mL/min/kg; Cmax (in vivo [13]): 108 ng/mL; half-life (in vivo [14]): 1.7 h
7 | COc1ccc(COc2ccc(Cc3cnc(N)nc3N)cc2OC)cc1 [GW632580X] | 2.6 |  | < 5.00 | 11 ×10⁻⁶ cm/s |  | 1.2 µg/mL (≈ 3.27 µM) | 
8 | Cc1nc(-c2cnc(NC(C)C)n(C)c2=O)ccc1Oc1ccnc(-c2cnn(C)c2)c1 [VIMSELTINIB] |  |  |  |  |  |  | pIC50 [15]: 6.32
